Columns and labels:
Type in all cases: cell-based
[1] = molecular target: adenosine A2b receptor (A2bR) (Homo sapiens (Human), UniProt P29275); assay: Inhibition of adenosine A2b receptor cAMP signaling pathway (HTRF cAMP, CHO-K1/A2bR cells); settings: Table 3; for IC50: CHO-K1/A2bR cells, ethyl carbazole 1 μM, cAMP HTRF
Method in brief: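 CHO-K1 cells expressing human A2bR were preincubated with compound (0-100000 nM final) for 30 min at room temperature in HEPES/BSA buffer with rolipram and adenosine deaminase. They were then stimulated with 1 μM […] for 30 min. Intracellular cAMP was measured by HTRF after 1 h detection.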

[2] = molecular target: adenosine A2a receptor (A2aR) (Homo sapiens (Human), UniProt P29274); assay: Inhibition of adenosine A2a receptor cAMP signaling pathway (HTRF cAMP, CHO-K1/A2aR cells)
Chain of adenosine A2a receptor (A2aR) (P29274 whole entry): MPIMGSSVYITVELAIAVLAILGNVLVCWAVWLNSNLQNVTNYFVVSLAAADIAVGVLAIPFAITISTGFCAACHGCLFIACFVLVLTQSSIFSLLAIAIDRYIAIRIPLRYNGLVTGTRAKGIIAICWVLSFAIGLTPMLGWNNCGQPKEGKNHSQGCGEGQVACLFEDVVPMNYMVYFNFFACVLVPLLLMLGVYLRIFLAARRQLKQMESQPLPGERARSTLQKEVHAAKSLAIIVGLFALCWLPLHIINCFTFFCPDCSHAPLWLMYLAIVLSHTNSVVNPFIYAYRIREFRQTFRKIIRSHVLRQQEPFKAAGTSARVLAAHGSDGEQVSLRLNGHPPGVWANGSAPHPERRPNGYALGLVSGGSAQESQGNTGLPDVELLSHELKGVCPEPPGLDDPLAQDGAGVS
Method in brief: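 CHO-K1 cells expressing human A2aR, preincubated 30 min at room temperature with compound (10000–0.001024 nM final) in HEPES/BSA buffer with rolipram and adenosine deaminase, then stimulated 30 min with […] (20 nM final). Intracellular cAMP read by HTRF after 1 h lysis/detection.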

[3] = molecular target: adenosine A3 receptor (A3R) (Homo sapiens (Human), UniProt P0DMS8); assay: Inhibition of adenosine A3 receptor cAMP signaling pathway (HTRF cAMP, CHO-K1/A3R cells); settings: Table 2; for IC50: CHO-K1/A3R cells, forskolin 10 μM, 2Cl-IB-MECA 5 nM, cAMP HTRF
Chain of adenosine A3 receptor (A3R) (P0DMS8 whole entry): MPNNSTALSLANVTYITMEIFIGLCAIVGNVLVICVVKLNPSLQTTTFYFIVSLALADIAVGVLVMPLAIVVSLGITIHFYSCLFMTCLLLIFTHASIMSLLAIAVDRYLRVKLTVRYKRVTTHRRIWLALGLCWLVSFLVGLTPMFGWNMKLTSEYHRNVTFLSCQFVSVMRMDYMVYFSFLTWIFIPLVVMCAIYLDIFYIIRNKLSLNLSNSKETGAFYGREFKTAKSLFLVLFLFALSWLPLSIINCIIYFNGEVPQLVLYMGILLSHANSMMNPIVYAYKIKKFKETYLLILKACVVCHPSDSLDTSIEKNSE
Method in brief: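 CHO-K1/A3R cells preincubated 30 min at room temperature with compound (100000–0.1 nM final) in HEPES/BSA buffer with rolipram and adenosine deaminase. Then stimulated 30 min with 10 μM forskolin plus 5 nM 2Cl-IB-MECA. Intracellular cAMP read by HTRF after 1 h.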

Chain of adenosine A2b receptor (A2bR) (P29275 whole entry): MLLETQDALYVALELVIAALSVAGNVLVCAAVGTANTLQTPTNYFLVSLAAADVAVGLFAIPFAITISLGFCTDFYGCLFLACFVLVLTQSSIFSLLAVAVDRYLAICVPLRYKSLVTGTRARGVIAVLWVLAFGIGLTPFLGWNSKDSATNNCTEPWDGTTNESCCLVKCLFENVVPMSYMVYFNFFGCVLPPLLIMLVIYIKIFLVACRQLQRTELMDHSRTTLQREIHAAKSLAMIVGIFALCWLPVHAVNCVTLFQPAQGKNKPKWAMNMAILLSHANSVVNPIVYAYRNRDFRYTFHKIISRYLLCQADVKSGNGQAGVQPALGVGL

Row | IC50 [1] | IC50 ([2]; Table 1, ethyl carbazole 20 nM) | IC50 ([2]; Table 2, ethyl carbazole 20 nM) | IC50 ([2]; Table 3, ethyl carbazole 20 nM) | IC50 ratio (A3R/A2aR) [3] | IC50 [3] | IC50 ratio (A2bR/A2aR) ([1]; selectivity A2bR over A2aR) | Compound
1 | 793 nM | 3.96 nM | 3.96 nM | 0.75 nM | >2.5 × 10^3 | > 10000 nM | – | Cc1cc(-c2c(-c3ccc(F)cc3F)nc(N)n3cnnc23)cc(C(F)(F)F)n1 [Example 18, 7-(2,4-Difluorophenyl)-8-(2-methyl-6-(trifluoromethyl)pyridin-4-yl)-[1,2,4]triazolo[4,3-c]pyrimidin-5-amine]
2 | 522 nM | 2.33 nM | 2.33 nM | 2.33 nM | >4.3 × 10^3 | > 10000 nM | 224 | Cc1cc(-c2c(-c3ccc(F)cc3F)nc(N)n3cnnc23)cc(C(F)F)n1 [Example 20, 8-(2-(Difluoromethyl)-6-methylpyridin-4-yl)-7-(2,4-difluorophenyl)-[1,2,4]triazolo[4,3-c]pyrimidin-5-amine]
